Laboratory results as given in US20250388623A1, “PEPTIDE INHIBITOR AND USE THEREOF” (CHENGDU BRILLIANT INSPIRATION BIOTHERAPEUTICS CO., LTD, priority 2022, published 2025).
Bridge positions count the residues as written; N and C are the ends. Peptide text beside a SMILES is read from it.

Assays:
[1] = test system: mouse lung fibrosis model induced by bleomycin (BLM); assay: Hydroxyproline (HYP) content / collagen deposition in lung, BLM mouse fibrosis model; format: in vivo; conditions: 3 mg/kg intratracheal twice weekly x4 from Day 8, Day 21, BLM model group = 100.00
Method: This Example was to evaluate the inhibitory effect of polypeptides on collagen deposition in fibrotic tissues. In this example, 6- to 8-week-old male C57/6J mice weighing 18-20 g were used as subjects for the study. The experimental animals were randomized into groups, eight animals in each group. On the day of modeling (Day 1), a 0.7 USP/kg dose of bleomycin solution was administered via the tracheal route to induce the model. Treatment dosing started on Day 8. Each peptide-treated group received the peptide drug intratracheally at a dosage of 3 mg/kg, administered twice weekly for a total of four doses. The BLM model group received an equal volume of solvent (saline) as a control. The administration procedure followed that described in Example 4. Day 21 was set as the experimental endpoint for assessing the degree of fibrosis in the model.
On Day21, the animals were dissected to collect lung tissues, and after grinding the lung tissues in liquid nitrogen, hydroxyproline (HYP) was extracted from the tissue using acid hydrolysis. HYP is a unique amino acid found in collagen, and the determination of HYP content is an important indicator reflecting the metabolism of collagen tissue and the degree of fibrosis. 1 mL of 6N HCl was added per 100 mg of tissue and thoroughly mixed, followed by hydrolysis at 121° C. for 6 hours. The hydrolysate was centrifuged, and the resulting supernatant, along with a gradient of HYP standard solutions (Sigma, Catalog No. V900395-25G) at different concentrations, was used for HYP content determination. To each well of a 96-well plate, 10 μL of the hydrolysate supernatant was added and dried in an oven at 65° C. 100 μL per well of 1.4% chloramine T oxidizing solution (Sigma, Catalog No. 23270-50G) was added, and incubated at room temperature for 15 minutes. 100 μL per well of Ehrlich's color development solution (Solarbio, Catalog No. G1290) was added and incubated at 65° C. for 30 minutes. The absorbance of each sample well was measured at 560 nm (OD560) using a multifunctional microplate reader (TECAN, model Infinite 200 Pro). The total HYP content in the lung tissue from each experimental group was calculated to determine the reduction percentage of HYP content in the peptide-treated group relative to the model group, and the inhibitory effect of the peptide molecule on collagen deposition at the fibrotic site was assessed.

[2] = test system: mouse lung fibrosis model induced by bleomycin (BLM); assay: Inflammatory and fibrotic pathology (HE, Masson's trichrome) in BLM mouse fibrosis model; format: in vivo; parameters: scale not given here; conditions: for Inflammatory score Mean: 3 mg/kg intratracheal twice weekly x4 from Day 8, Day 21, HE staining, BLM model 2.25, negative control 0.36; for Fibrosis score Mean: 3 mg/kg intratracheal twice weekly x4 from Day 8, Day 21, Masson's trichrome, BLM model 3.25, negative control 1.01
Method: This Example was to assess the inhibitory effect of polypeptides on fibrotic pathology. 6- to 8-week-old male C57/6J mice weighing 18-20 g were used as subjects for the study. The experimental animals were randomized into groups, 6 animals in each group. On the day of modeling (Day 1), a single dose of 0.7 USP/kg of BLM solution was administered via the tracheal route to the BLM group and each peptide-treated group to induce the model. The negative control group received an equal volume of saline. Treatment dosing started on Day 8. Each peptide-treated group received the peptide drug intratracheally at a dosage of 3 mg/kg, while the positive control group received the peptide of SEQ ID NO: 50 at the same dosage, and the administration frequency was twice a week, with a total of 4 administrations. The BLM model group and the negative control group received an equal volume of solvent (saline) as a control. The procedure followed that described in Example 4.
On Day 21, the lung tissues were dissected, washed with saline to remove blood stains, and dried with gauze. Histopathological analysis was then performed on the dissected lung tissues. The lung tissues were perfused with 0.5 mL of paraformaldehyde via the trachea and placed in 4 mL of paraformaldehyde. A small amount of gauze was added to ensure the lung tissues were completely immersed in the fixative solution. The tissues were fixed for more than 24 hours. One lobe of the left lung and four lobes of the right lung were trimmed to the maximum coronal plane, placed in an embedding cassette, dehydrated overnight, and then paraffin-embedded to make 3 μm sections. An autostainer (Leica, model ST5010) was used for Hematoxylin (Herst, lot no. 201905)-Eosin (Chron, lot no.2018070301) (HE) staining, and MASSON'S trichrome (Celestineblue, Chron, lot no. MKCH8129; Aniline blue, Yuanye, lot no. H70J11S115483; Ponceau, Sigma, lot no. SHBM2047) staining. After mounting the sections, they were scanned using a digital panoramic scanner (Zhiyue, model WS-10). For each lung lobe, ≤10 visual fields were captured under a 20× magnification. The severity of inflammation and the severity of fibrosis were assessed using HE staining and Masson's trichrome staining, respectively, to evaluate the inhibitory effects of the polypeptides on inflammatory infiltration and fibrotic deposition at pathological fibrotic sites.

**Q.** For `C[C@@H]1NC(=O)[C@H](CC(=O)O)NC(=O)[C@H](CCC(N)=O)NC(=O)[C@H]([C@@H](C)O)NC(=O)[C@H](CC(N)=O)NC(=O)[C@H](CC(=O)O)NC(=O)[C@H](CCC(=O)O)NC1=O` [SEQ ID NO: 40, cyclo[Thr-Gln-Asp-Ala-Glu-Asp-Asn]] (cyclo(AEDNTQD)), which “HYP content in lung tissue relative to model group, Mean (%)” value [1] is on record?
**A.** The value was 77.88%.

**Q.** How did the “Inflammatory score Mean” value [2] turn out when `CC(=O)N[C@H](C(=O)N[C@H]1CSSC[C@@H](C(=O)O)NC(=O)[C@H](CC(N)=O)NC(=O)[C@H](CC(=O)O)NC(=O)[C@H](CCC(=O)O)NC(=O)[C@H](C)NC(=O)[C@H](CC(=O)O)NC1=O)[C@@H](C)O` [SEQ ID NO: 43, Ac-Thr-cyclo[Cys-Asp-Ala-Glu-Asp-Asn-Cys]] (Ac-TCDAEDNC-OH; disulfide 2-8) was run?
**A.** The value was 1.46.

**Q.** What about the “Fibrosis score Mean” value [2] of the same compound?
**A.** The value was 2.59.

**Q.** And the “HYP content in lung tissue relative to model group, Mean (%)” value [1]?
**A.** The value was 72.18%.

**Q.** `CC(=O)N[C@H](C(=O)N[C@H]1CSSC[C@@H](C(N)=O)NC(=O)[C@H](CC(N)=O)NC(=O)[C@H](CC(=O)O)NC(=O)[C@H](CCC(=O)O)NC(=O)[C@H](C)NC(=O)[C@H](CC(=O)O)NC1=O)[C@@H](C)O` [SEQ ID NO: 44, Ac-Thr-cyclo[Cys-Asp-Ala-Glu-Asp-Asn-Cys]-NH2] (Ac-TCDAEDNC-NH2; disulfide 2-8) was tested. Which “HYP content in lung tissue relative to model group, Mean (%)” value [1] did it give?
**A.** Its value is 78.25%.

**Q.** Which “HYP content in lung tissue relative to model group, Mean (%)” value [1] does the source give for `C[C@@H]1NC(=O)[C@H]([C@@H](C)O)NC(=O)[C@H](CC(N)=O)NC(=O)[C@H](CC(=O)O)NC(=O)[C@H](CCC(=O)O)NC(=O)[C@@H]2CCCN2C(=O)[C@H](CC(=O)O)NC(=O)[C@H](CCC(N)=O)NC(=O)[C@H]([C@@H](C)O)NC(=O)[C@H](CO)NC1=O` [SEQ ID NO: 46, cyclo[Thr-Gln-Asp-Pro-Glu-Asp-Asn-Thr-Ala-Ser]] (cyclo(ASTQDPEDNT)) here?
**A.** The value was 80.16%.

**Q.** With “Ac-TQDAEDN-NH2 [SEQ ID NO: 06, Ac-Thr-Gln-Asp-Ala-Glu-Asp-Asn-NH2]” as the compound, how does the “Inflammatory score Mean” value [2] read?
**A.** Its value is 1.65.

**Q.** And the “Fibrosis score Mean” value [2]?
**A.** The value was 2.65.

**Q.** And the “HYP content in lung tissue relative to model group, Mean (%)” value [1]?
**A.** The value was 79.51%.

**Q.** Which results are given for “Ac-TQDAEDNTASH-NH2 [SEQ ID NO: 33, Ac-Thr-Gln-Asp-Ala-Glu-Asp-Asn-Thr-Ala-Ser-His-NH2]”?
**A.** Inflammatory score Mean [2]: 1.27; Fibrosis score Mean [2]: 2.64; HYP content in lung tissue relative to model group, Mean (%) [1]: 82.23%

**Q.** Which “Inflammatory score Mean” value [2] does the source give for “Ac-TQDAEDPTA-NH2 [SEQ ID NO: 22, Ac-Thr-Gln-Asp-Ala-Glu-Asp-Pro-Thr-Ala-NH2]” here?
**A.** The value was 1.43.

**Q.** And the “Fibrosis score Mean” value [2]?
**A.** Its value is 2.33.

**Q.** And the “HYP content in lung tissue relative to model group, Mean (%)” value [1]?
**A.** The value was 72.66%.

**Q.** For “Ac-TQDAEDPTAS-NH2 [SEQ ID NO: 25, Ac-Thr-Gln-Asp-Ala-Glu-Asp-Pro-Thr-Ala-Ser-NH2]”, which “Inflammatory score Mean” value [2] is on record?
**A.** Its value is 1.39.

**Q.** And the “Fibrosis score Mean” value [2]?
**A.** The value was 2.47.

**Q.** And the “HYP content in lung tissue relative to model group, Mean (%)” value [1]?
**A.** The value was 77.75%.

**Q.** How did the “Inflammatory score Mean” value [2] turn out when “Ac-TQDPEDNTAS-NH2 [SEQ ID NO: 26, Ac-Thr-Gln-Asp-Pro-Glu-Asp-Asn-Thr-Ala-Ser-NH2]” was run?
**A.** The value was 0.95.

**Q.** And the “Fibrosis score Mean” value [2]?
**A.** Its value is 2.05.

**Q.** What about the “HYP content in lung tissue relative to model group, Mean (%)” value [1] of the same compound?
**A.** Its value is 72.07%.
